According to patent publication US8883410B2, “Method for determining the stability of organic methyleneamines in the presence of semicarbazide-sensitive amine oxidase” (Sanofi, priority 2007, dated 2014):

Experiments:
Format in all cases: in vitro ADME
[1] = Benzylamine stability in control cell lysate (no SSAO expressed), LC/MS/MS; conditions: tag None
Description: (§1) Adherent CHO cells were cultured at 37° C., 5% CO2 in media containing Ham's F12, 10% fetal bovine serum, 2 mM L-glutamine, 1% Penicillin/Streptomycin, 300 μM hygromycin B. Adherent HEK 293 cells were cultured at 37° C., 5% CO2 in D-MEM (high glucose), 10% fetal bovine serum, 2 mM L-glutamine, and 200 μM hygromycin B. Stable transformants were identified by loss of zeocin resistance. Once the cells were 80% confluent, SSAO expression was induced by the addition of Tetracycline to 1 μg/mL. Following 18 hours, the cells were harvested using a trypsin treatment of 3 minutes, at room temperature. Cells were washed 3 times in phosphate buffered saline before flash freezing in liquid nitrogen.
(§2) For the preparation of cell lysate for activity testing, frozen cell pellets were resuspended in lysate buffer containing 10 mM Tris-HCl (pH 7.2), 150 mM NaCl, 1.5 mM MgCl2, 1% v/v NP-40 and incubated for 15 minutes on ice. Lysate was cleared by centrifugation 800×g for 10 minutes, 4° C. and stored in aliquots at −80° C. until use. Proteins were determined using Pierce Coomassie Protein Reagent, according to manufacturer's instructions.
(§3) For each assay run, 1 mL of cell lysate (1.5 mg/mL protein) was mixed with benzylamine to 2000 ng/mL final concentration. At each corresponding time point, […] the incubation mixture was transferred to a microcentrifuge tube (1.7 mL) and mixed with 50 μL of acetonitrile. The tubes were vortex mixed briefly to ensure complete mixing and then centrifuged at 10,000×g for 5 minutes. The supernatant was removed and 50 μL was transferred to an autosampler vial and mixed with 50 μL of water before LC/MS/MS analysis. Benzylamine remaining in the lysate was analyzed with LC/MS/MS method.
(§4) LC/MS/MS analysis was performed with a PE Sciex API 3000 mass spectrometer under the following conditions listed below and in Tables 1 and 2: […]

[2] = target: T1, human SSAO T2 (Met211-Asn763), untagged (Homo sapiens, UniProt Q16853); assay: Benzylamine stability in lysate of cells expressing T2 SSAO (untagged), LC/MS/MS; conditions: tag None
T1 construct: T2 (Met211-Asn763) Representing the Putative Catalytic Domain; expressed in transfected cells; cell lysate
T1 sequence (Q16853 211-763): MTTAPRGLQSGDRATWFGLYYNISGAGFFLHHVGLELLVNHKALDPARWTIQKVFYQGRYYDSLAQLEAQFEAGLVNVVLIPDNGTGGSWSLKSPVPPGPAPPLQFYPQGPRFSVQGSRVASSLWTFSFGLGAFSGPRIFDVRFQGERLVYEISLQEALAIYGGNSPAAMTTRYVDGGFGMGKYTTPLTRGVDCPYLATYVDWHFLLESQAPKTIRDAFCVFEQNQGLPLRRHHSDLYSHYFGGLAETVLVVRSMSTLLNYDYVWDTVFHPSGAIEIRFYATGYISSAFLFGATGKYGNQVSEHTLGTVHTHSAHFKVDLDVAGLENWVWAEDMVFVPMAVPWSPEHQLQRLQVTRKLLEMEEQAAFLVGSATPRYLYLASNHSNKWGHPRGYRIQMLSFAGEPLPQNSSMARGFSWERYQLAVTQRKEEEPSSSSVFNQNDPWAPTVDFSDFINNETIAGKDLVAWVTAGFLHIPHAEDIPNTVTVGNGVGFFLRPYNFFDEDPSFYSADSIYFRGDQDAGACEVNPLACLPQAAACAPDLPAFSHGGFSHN
Description: (§5) 4) T2 (Met211-Asn763) Representing the Putative Catalytic Domain.
(§6) The expression constructs were prepared by cloning these PCR products into the pCDNA5-FRT-To-DEST vector (Invitrogen, Gateway System™). The forward and reverse DNA sequence of each construct was confirmed including expressed sequences and at least 100 base pairs either side of this. Stable cell lines for Flp-In CHO, Flp-In CHO T-Rex, and Flp-In HEK 293 (Invitrogen, Flp-In system™) were generated using these 6 constructs according to manufacturer's instructions. Cells were co-transfected with the regulatory vector, pOG44, and each of the pCDNA5-FRT-To-DEST constructs using Lipfectamine (Invitrogen) according to manufacturer's instructions. Thus, 18 cell lines were generated: CHO Flp-In full-length SSAO; CHO Flp-In full-length SSAO with C-terminal 6×HIS tag; CHO Flp-In T1 SSAO; CHO Flp-In T1 SSAO with C-terminal 6×HIS tag; CHO Flp-In T2 SSAO; CHO Flp-In T2 SSAO with C-terminal 6×HIS tag; CHO T-Rex Flp-In full-length SSAO; CHO T-Rex Flp-In full-length SSAO with C-terminal 6×HIS tag; CHO T-Rex Flp-In T1 SSAO; CHO T-Rex Flp-In T1 SSAO with C-terminal 6×HIS tag; CHO T-Rex Flp-In T2 SSAO; CHO Flp-In T2 SSAO with C-terminal 6×HIS tag; HEK 293 Flp-In full-length SSAO; HEK 293 Flp-In full-length SSAO with C-terminal 6×HIS tag; HEK 293 Flp-In T1 SSAO; HEK 293 Flp-In T1 SSAO with C-terminal 6×HIS tag; HEK 293 Flp-In T2 SSAO; HEK 293 Flp-In T2 SSAO with C-terminal 6×HIS tag.
as §1, §2, §3, §4

[3] = target: T2, human SSAO T2 (Met211-Asn763), C-terminal 6xHIS tag (Homo sapiens, UniProt Q16853); assay: Benzylamine stability in lysate of cells expressing T2 SSAO with C-terminal 6xHIS tag, LC/MS/MS
T2 construct: T2 (Met211-Asn763) Representing the Putative Catalytic Domain; expressed in transfected cells; cell lysate
T2 sequence (Q16853 211-763): T1 sequence (Q16853 211-763)
Description: as §5, §6, §1, §2, §3, §4

[4] = CHO Flp-In T-Rex lysate, 10 min

SMILES: NCc1ccccc1 [Benzylamine]
- Benzylamine Remaining (%) ([1]; CHO Flp-In T-Rex lysate, SSAO None, 0 min): 100%
- Benzylamine Remaining (%) ([1]; CHO Flp-In T-Rex lysate, SSAO None, 10 min): 104%
- Benzylamine Remaining (%) ([1]; CHO Flp-In T-Rex lysate, SSAO None, 2 h): 99%
- Benzylamine Remaining (%) ([1]; Control CHO Flp-In lysate, SSAO none, 0 min): 100%
- Benzylamine Remaining (%) ([1]; Control CHO Flp-In lysate, SSAO none, 10 min): 104%
- Benzylamine Remaining (%) ([1]; Control CHO Flp-In lysate, SSAO none, 2 h): 99%
- Benzylamine Remaining (%) ([1]; Control CHO lysate, SSAO none, 0 min): 100%
- Benzylamine Remaining (%) ([1]; Control CHO lysate, SSAO none, 10 min): 111%
- Benzylamine Remaining (%) ([1]; Control CHO lysate, SSAO none, 2 h): 110%
- Benzylamine Remaining (%) ([1]; HEK293 control lysate, SSAO none, 0 min): 100%
- Benzylamine Remaining (%) ([1]; HEK293 control lysate, SSAO none, 10 min): 106%
- Benzylamine Remaining (%) ([1]; HEK293 control lysate, SSAO none, 2 h): 123%
- Benzylamine Remaining (%) ([2]; CHO Flp-In T-Rex lysate, 0 min): 100%
- Benzylamine Remaining (%) [2, 4]: 97%
- Benzylamine Remaining (%) ([2]; CHO Flp-In T-Rex lysate, 2 h): 83%
- Benzylamine Remaining (%) ([2]; CHO Flp-In lysate, 0 min): 100%
- Benzylamine Remaining (%) ([2]; CHO Flp-In lysate, 10 min): 105%
- Benzylamine Remaining (%) ([2]; CHO Flp-In lysate, 2 h): 98%
- Benzylamine Remaining (%) ([2]; HEK293 lysate, 0 min): 100%
- Benzylamine Remaining (%) ([2]; HEK293 lysate, 10 min): 113%
- Benzylamine Remaining (%) ([2]; HEK293 lysate, 2 h): 101%
- Benzylamine Remaining (%) ([3]; CHO Flp-In T-Rex lysate, 0 min): 100%
- Benzylamine Remaining (%) [3, 4]: 100%
- Benzylamine Remaining (%) ([3]; CHO Flp-In T-Rex lysate, 2 h): 97%
- Benzylamine Remaining (%) ([3]; CHO Flp-In lysate, 0 min): 100%
- Benzylamine Remaining (%) ([3]; CHO Flp-In lysate, 10 min): 108%
- Benzylamine Remaining (%) ([3]; CHO Flp-In lysate, 2 h): 102%
- Benzylamine Remaining (%) ([3]; HEK293 lysate, 0 min): 100%
- Benzylamine Remaining (%) ([3]; HEK293 lysate, 10 min): 100%
- Benzylamine Remaining (%) ([3]; HEK293 lysate, 2 h): 117%
